In patent publication US5591648A, “Antibodies for mevalonic acid and methods for immunological determination of mevalonic acid by using them” (Ono Pharmaceutical Co., Ltd., priority 1993, dated 1997):

How the values were obtained:
Format in all cases: binding
[1] = test system: rabbit polyclonal antibody KLH-(12)R for mevalonic acid; test: Cross-reaction of rabbit polyclonal antibody with analogues of mevalonic acid (radioimmunoassay, competition with R-[2-14C] mevalonic acid); conditions: for IC50: competition with 400 Bq R-[2-14C] mevalonic acid, overnight at 4° C., polyethylene glycol precipitation
Description: After about 4 weeks, the rabbit was sensitized four times for each 2 weeks, by an emulsion of a PBS solution (500 μl) containing of the antigen for immunization prepared by the same procedure as hereinbefore described, and FICA (500 μl).
Blood was collected from the rabbit and to the serum prepared (50 μl) were added successively water (450 μl), 0.5% γ-globulin (80 μl) and a saturated aqueous solution of ammonium sulfate (580 μl), and then the mixture was centrifuged. The precipitation was dissolved into 50 mM PB (200 μl), and 50 mM PB (100 μl) containing R-[2-^14 C] mevalonic acid (400 Bq) was added thereto and the mixture was reacted overnight at 4° C. To the mixture was added successively 0.1M PB (200 μl) containing 0.5% bovine γ-globulin and 30% polyethylene glycol 6000 (register trademark, Wako Pure Chem Ind. Ltd. 600 μl), and then the mixture was centrifuged. Radioactivity of the precipitation was measured. […] This blood serum was called as polyclonal antibody, KLH-(12)R.
To 50 mM PB containing 400 Bq of R-[2-^14 C] mevalonic acid (100 μl) was added successively a solution of antibody (the mixture of the polyclonal antibody KLH-(12)R of the present invention, water, (0.5% γ-globulin and a saturated aqueous solution of ammonium sulfate in the ratio of 0.5:4.5:0.8:5.8 was centrifugalized, and the obtained precipitation was dissolved into a solution of 50 mM PB of four times as much as amount of the used polyclonal antibody, 100 μl) and a standard solution of mevalonic acid analogous compound as indicated following table (a solution of 50 mM PB, 100 μl) in the polystyrene tube, and then the mixture was allowed to stand overnight at 4° C. To the reaction mixture was added a solution of 0.5% γ-globulin (200 μl), and further added 30% polyethylene glycol 6000 (600 μl), and then the mixture was centrifuged. The precipitation was dissolved into 0.1N aqueous solution of sodium hydroxide, and added the liquid of scintillator (1 ml), and measured radioactivity.

[2] = target: mouse monoclonal antibody MHM-9H (IgG2b, k; hybridoma FERM BP-4524) for mevalonic acid; test: Cross-reaction of mouse monoclonal antibody with analogues of mevalonic acid (enzyme immunoassay, solid phase first antibody); conditions: for IC50: antibody MHM-9H coated 7 μg/ml, peroxidase-labeled antigen (18), overnight at 4° C., absorbance 450 nm; for cross-reactivity: antibody MHM-9H, relative to mevalonic acid = 100
Description: A solution of antibody (prepared in example 10 as hereinafter defined) was placed with 100 μl portions in a polystyrene 96 wells micro plate (prepared by NUNC Co.). The micro plate was allowed to stand for 1.5 hours at room temperature to be fixed. After the removal of an aqueous layer, 50 mM PB (400 μl) containing 0.5% BSA was added to block the inside of a wall of wells for 1 hour at room temperature.
After the removal of an aqueous layer, 50 mM PB (100 μl) containing mevalonic acid analogues of various concentrations was added. A solution of labeled antigen (prepared in example 10 as hereinafter defined) was added thereto with 100 μl portions and then the mixture was allowed to stand overnight at 4° C. After the removal of an aqueous layer, the dishes were washed twice with 50 mM PB (300 μl) containing 0.05% Tween 20. The substrate solution (prepared in example 9 as hereinafter, 250 μl) was added thereto and then the mixture was reacted for 15 minutes at room temperature. After the reaction was stopped by the addition of 1N sulfuric acid (50 μl), and the absorbance was measured at 450 nm.
A conjugate (18) of mevalonic acid derivative and a specer (prepared) in example 1(b). 175 nmol) was added to PBS (175 μl) containing a horse-radish peroxidase (prepared by Toyobo, 350 μg) and then the mixture was reacted for 2 hours at room temperature and then overnight at 4° C. The reaction mixture was dialyzed by a mixture of 1,4-dioxane and PBS (1:1) and then by PBS. An obtained enzyme-labeled antigen was diluted with 50 mM PB containing 0.1% BSA to become 1.25 ng/100 μl (as peroxidase protein).
Monoclonal antibody of the present invention, MHM-9H (prepared in example 5), was prepared by 50 mM PB to become 7 μg/ml.

[3] = target: mouse polyclonal antibody KLH-(12)M for mevalonic acid; test: Enzyme immunoassay of mevalonic acid, solid phase antigen method, mouse polyclonal antibody KLH-(12)M; conditions: KLH-(12)M diluted 10^4; coated BSA-(31) 0.01 μg/ml; second antibody and blocking (B)
Description: (§1) An emulsion of PBS (100 μl) containing each of various antigens for immunization prepared in Example 2 (120 μg as BSA when a BSA-conjugate is used or 120 μg as KLH when a KLH-conjugate is used), and FCA (100 μl) was intraperitoneally administered to a male BALC/c mouse aged eight weeks. After about 2 weeks, the mouse was immunized five times every 2 weeks, by an emulsion of a PBS solution (100 μl) containing of the antigen for immunization and FICA (100 μl), prepared by the same procedure as hereinbefore described. After the second and fifth immunization with the antigen for immunization and FICA, the titer of antibody in blood was measured by the method shown below.
(§2) Anti-mouse IgG antibody labeled with the horse-radish peroxidase (prepared by Vector Co.), which was diluted with 50 mM PB containing 0.1% BSA 10000 times (a solution of the second antibody (B)), and which was diluted with 50 mM PB containing 0.1% OVA 10000 times (a solution of the second antibody (O)). […]
(§3) After the removal of an aqueous layer, a standard solution (100 μl) was added thereto. […] After a stopping solution (50 μl) added thereto, and the absorbance was measured at 450 nm.
(§4) On all mouse polyclonal antibody, standard calibration curves were made by platting B/B0 calculated from the measured absorbance.

[4] = target: mouse polyclonal antibody KLH-(18)M for mevalonic acid; test: Enzyme immunoassay of mevalonic acid, solid phase antigen method, mouse polyclonal antibody KLH-(18)M; conditions: KLH-(18)M diluted 2 × 10^3; coated BSA-(31) 0.01 μg/ml; second antibody and blocking (B)
Description: as §1, §2, §3, §4

[5] = target: mouse polyclonal antibody BSA-(19)M for mevalonic acid; test: Enzyme immunoassay of mevalonic acid, solid phase antigen method, mouse polyclonal antibody BSA-(19)M; conditions: BSA-(19)M diluted 2 × 10^3; coated KLH-(31) 0.01 μg/ml; second antibody and blocking (O)
Description: as §1, §2, §3, §4

[6] = target: mouse polyclonal antibody KLH-(31)M for mevalonic acid; test: Enzyme immunoassay of mevalonic acid, solid phase antigen method, mouse polyclonal antibody KLH-(31)M; conditions: KLH-(31)M diluted 10^5; coated BSA-(12) 0.01 μg/ml; second antibody and blocking (B)
Description: as §1, §2, §3, §4

[7] = target: mouse polyclonal antibody KLH-(39)M for mevalonic acid; test: Enzyme immunoassay of mevalonic acid, solid phase antigen method, mouse polyclonal antibody KLH-(39)M; conditions: KLH-(39)M diluted 3 × 10^4; coated BSA-(12) 0.01 μg/ml; second antibody and blocking (B)
Description: as §1, §2, §3, §4

[8] = target: mouse polyclonal antibody KLH-(45)M for mevalonic acid; test: Enzyme immunoassay of mevalonic acid, solid phase antigen method, mouse polyclonal antibody KLH-(45)M; conditions: KLH-(45)M diluted 2 × 10^3; coated BSA-(12) 0.1 μg/ml; second antibody and blocking (B)
Description: as §1, §2, §3, §4

[9] = target: mouse polyclonal antibody KLH-(53)M for mevalonic acid; test: Enzyme immunoassay of mevalonic acid, solid phase antigen method, mouse polyclonal antibody KLH-(53)M; conditions: KLH-(53)M diluted 5 × 10^2; coated BSA-(39) 1 μg/ml; second antibody and blocking (B)
Description: as §1, §2, §3, §4

[10] = relative to mevalonic acid = 100

Row | IC50 [1] [μg/test] | IC50 [2] [μg/test] | cross-reactivity [2] [%] | IC50 [3] [μg/test] | IC50 [4] [μg/test] | IC50 [5] [μg/test] | IC50 [6] [μg/test] | IC50 [7] [μg/test] | IC50 [8] [μg/test] | IC50 [9] [μg/test] | SMILES | cross-reactivity [1, 10] [%] | cross-reactivity ([1]; relative to mevalonic acid = 100, listed as glutaric acid)
1 | 1000 | > 250 | < 0.001 |  |  |  |  |  |  |  | CC(CC(=O)O)CC(=O)O [3-Methylglutaric acid] | 0.0065 | 
2 | 500 | > 250 | < 0.001 |  |  |  |  |  |  |  | CC(O)(CC(=O)O)CC(=O)O [3-Hydroxy-3-methylglutaric acid] | 0.013 | 
3 | 0.065 | 0.0025 | 100 | 0.5 | 0.3 | 3.6 | 0.7 | 0.1 | 4.0 | 6.0 | C[C@@](O)(CCO)CC(=O)O [Mevalonic acid] | 100 | 

Row | SMILES | IC50 [1] [μg/test] | IC50 [2] [μg/test] | cross-reactivity [2] [%] | IC50 [3] [μg/test] | IC50 [4] [μg/test] | IC50 [5] [μg/test] | IC50 [6] [μg/test] | IC50 [7] [μg/test] | IC50 [8] [μg/test] | IC50 [9] [μg/test] | cross-reactivity [1, 10] [%] | cross-reactivity ([1]; relative to mevalonic acid = 100, listed as glutaric acid)
4 | O=C(O)CCCC(=O)O [Glutaric acid] | > 6500 | > 250 | < 0.001 |  |  |  |  |  |  |  | < 0.001 | less than 0.001%
